Data taken from the METLIN SMRT retention time set (Domingo-Almenara et al. 2019).

Test: gradient 5% acetonitrile 3 min, to 50% in 2 min, to 85% in 15 min, held 3 min, 100 µL/min
Details: column: Zorbax Extend-C18 2.1 x 50 mm; eluents: water / acetonitrile, 0.1% formic acid
Method in brief: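 The mobile phases were water and acetonitrile, each with 0.1% formic acid, pumped at 100 μL/min through a Zorbax Extend-C18 column (2.1 × 50 mm, 1.8 μm). Pure standards were injected as mixtures of ~100 molecules and detected by a quadrupole time-of-flight mass spectrometer in positive and negative ionization mode. Retention time came from computationally picked adduct peaks, each inspected by hand.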

Row | Compound | RP-LC retention time
1 | Cc1noc(-c2cc(=O)n(CC(=O)Nc3ccc(C(C)C)cc3)c3ccccc23)n1 | 1020 s
2 | CN(C)c1cc(N2CCCC(NC(=O)c3ccccn3)C2)ncn1 (configuration not stated) | 559 s
3 | CC(C)CNC(=O)c1nnc(-c2ccc(S(=O)(=O)N(C)C)cc2)o1 | 787 s
4 | Cc1nc(OCC(=O)Nc2cc(Cl)ccc2Cl)c2ccccc2n1 | 836 s
5 | Cc1cccc(Sc2nccnc2N2CCCC(C(=O)NCc3ccc(C)c(C)c3)C2)c1 (configuration not stated) | 1210 s
6 | CC(C)NC(=O)C1CCN(c2nc3ccc(-c4ccccc4)nc3s2)CC1 | 927 s
7 | COc1cccc(-c2nc(-c3cn(Cc4cccc(F)c4)nn3)no2)c1 | 995 s
8 | COc1ccccc1CNC(=O)Cn1nc(C)c2sc(-c3ccccc3)nc2c1=O | 884 s
9 | COCc1nn(CC2CC2)c2c1CN(C(=O)c1ccc(OC)cc1)CC2 | 715 s
10 | CCCN(C(C)=O)c1nc(-c2cccc(Br)c2)cs1 | 1260 s
11 | COc1ccc(NS(=O)(=O)c2cc3c(s2)CCN(C(=O)C2CCC2)C3)cc1 | 831 s
12 | CC1(C(=O)NCc2ccc(Cl)cc2)CN(S(C)(=O)=O)CC(=O)N1Cc1ccccc1 (configuration not stated) | 858 s
13 | O=C(CCc1c[nH]c2ccccc12)N1CCN(C(=O)c2cc(-c3ccncc3)n[nH]2)CC1 | 807 s
14 | Cc1cccc2c(=O)n(C3CCN(C(=O)Nc4cccc(C(F)(F)F)c4)CC3)cnc12 | 952 s
15 | CCn1cc(-c2ccc(C)cc2)cc1C(=O)N1CCN(C)CC1 | 657 s
16 | O=C(c1ccco1)N1CCN(C(=O)c2nc(-c3ccc(Cl)cc3)n3c2CCCCC3)CC1 | 741 s
17 | O=C(NCCCS(=O)(=O)N1CCN(c2ncccn2)CC1)C1CC1 | 608 s
18 | CO[C@H]1CN(C2CCN(S(=O)(=O)Cc3ccccc3F)CC2)[C@H]1c1ccncc1 | 620 s
19 | O=C(c1ccoc1)N1CCC2(CC1)N=C(c1cccc(Br)c1)NO2 | 763 s
20 | CCc1noc(NC(C)=O)c1-c1ccc(OC)c(S(=O)(=O)N2CCN(c3ccccc3)CC2)c1 | 895 s
21 | COc1ccccc1NC(=O)N1CCC(CNC(=O)CCSc2ccccc2)CC1 | 771 s
22 | Cn1c(C(=O)NC2CCN(Cc3ccccc3)CC2)cc2c(=O)oc3ccccc3c21 | 667 s
23 | O=c1ccc(-c2ccccc2)nn1Cc1nc(-c2ccc(Cl)cc2)no1 | 1080 s

Row | Compound | RP-LC retention time
24 | COc1ccc(CC(=O)NCC2CCC(c3nc4ccccc4n3C)CC2)cc1 (configuration not stated) | 579 s
25 | COCCNC(=O)C1CCN(C(=O)c2ncn3c2COC(c2ccc(OC)cc2)C3)CC1 (configuration not stated) | 658 s
26 | COC(=O)c1cccc(NS(=O)(=O)c2cc3n(c2)CCCNC3=O)c1 | 641 s
27 | CC(C(=O)NCCCN1CCCCC1)n1c2ccccc2c2cnn(C)c(=O)c21 (configuration not stated) | 618 s
28 | CCc1ccc(CNC(=O)c2c(C)sc3ccn(CC)c(=O)c23)cc1 | 959 s
29 | Cc1noc(C)c1-c1ccc(S(=O)(=O)Nc2cccc(F)c2)cc1 | 916 s
30 | CSc1ccc(CNC(=O)C2CCN(c3nnc(-c4ccc(C)cc4)o3)CC2)cc1 | 931 s
31 | O=C(NCc1ccccc1)N1CCc2nc(-c3ccccc3)ncc2C1 | 848 s
32 | CCc1nc(N2CCc3ccccc3C2)ncc1C(=O)O | 953 s
33 | COc1ccccc1-c1nc(C2CCN(C(=O)c3cc4cc(Cl)ccc4[nH]3)CC2)no1 | 1030 s
34 | CC(C)NC(=O)N(C1CCOCC1)C1CN(C(=O)c2cncc(Br)c2)C1 | 604 s
35 | CCNc1cc(N2CCCC(CCC(=O)NC3CCCC3)C2)ncn1 (configuration not stated) | 646 s
36 | Oc1cc2c(cc1O)[C@H]1c3ccccc3CN[C@@H]1CC2 | 628 s
37 | CCn1cnc2cc(-c3noc(C(NC(=O)c4ccco4)C(C)C)n3)ccc21 (configuration not stated) | 666 s
38 | CCOC(=O)C1CCCN(C(=O)C2CCc3nc(N(CC)CC)ncc3C2)C1 (configuration not stated) | 620 s
39 | CCCS(=O)(=O)N1CCC2(CC1)C(=O)N(c1cccc(F)c1)C2c1ccccc1 (configuration not stated) | 1120 s
40 | Cc1ccccc1C1CC(=O)c2cnc(N3CCC(C(N)=O)CC3)nc2C1 (configuration not stated) | 750 s
41 | O=S(=O)(c1cccc(C(F)(F)F)c1)N1CCC2(CCN(c3cccnc3)C2)C1 (configuration not stated) | 702 s
42 | O=C(Cc1csc(Nc2cccc(Cl)c2)n1)N1CCN(C(=O)c2ccco2)CC1 | 718 s
43 | COc1ccc2nc(C(=O)NCc3ccc(F)cc3)cn2n1 | 783 s
44 | Cc1ccc(CC(=O)N2CCN(c3cc(-c4ccc(C)cc4)ncn3)CC2)cc1 | 704 s
45 | Cn1cc(-c2cc3n(n2)CCCN3C(=O)CCC(=O)NC2CCCCC2)c2ccccc21 | 837 s
46 | O=C(NCCC1CCN(S(=O)(=O)c2ccc(F)cc2)CC1)NC1CCCCC1 | 890 s

Row | Compound | RP-LC retention time
47 | COc1ccc(-n2nc(C(=O)N3CCC(C(N)=O)CC3)c(=O)cc2OC)cc1OC | 588 s
48 | Cn1nccc1C(=O)N1CCN(S(=O)(=O)c2ccc3c(c2)oc(=O)n3C)CC1 | 679 s
49 | O=C(c1cn2c(n1)CSCC2)N(Cc1ccccc1)Cc1ccco1 | 736 s
50 | Cc1ccc(NS(=O)(=O)c2ccc(-c3nnc(C4CCC4)o3)o2)cc1F | 962 s
51 | Cc1noc(C)c1-c1ccc(S(=O)(=O)NCc2ccccc2)cc1 | 916 s
52 | COc1ncc(C(=O)NCCc2ccc(S(N)(=O)=O)cc2)cn1 | 608 s
53 | CCCn1cc(S(=O)(=O)Nc2ccc(C#N)cc2)c2cccnc21 | 844 s
54 | CC(C)(C)C(=O)N1CCC(C(=O)NCc2ccc3c(c2)OCO3)CC1 | 712 s
55 | COc1ccc(-c2csc(NC(=O)CS(=O)(=O)c3ccc(C)cc3)n2)c(OC)c1 | 1010 s
56 | CS(=O)(=O)N1CCC(OC2CCN(C(=O)c3ccc(Cl)cc3)CC2)CC1 | 767 s
57 | OC[C@H]1O[C@@H](c2ccc(Cl)c(Cc3ccc(O[C@H]4CCOC4)cc3)c2)[C@H](O)[C@@H](O)[C@@H]1O | 736 s
58 | CCOc1ccc2nc(Nc3ncc4c(n3)CCCC4=O)nc(C)c2c1 | 588 s
59 | O=C(NC1CCN(c2ccccc2)C1=O)c1ccc(Br)o1 (configuration not stated) | 773 s
60 | O=S(=O)(c1ccc(-c2nnc(C3CCCC3)o2)o1)N1CCCC1 | 933 s
61 | Cc1cc2cc(CNC(=O)NC3CC(=O)N(c4ccccc4)C3)ccc2[nH]1 (configuration not stated) | 668 s
62 | N#Cc1ccccc1NC(=O)CSc1cc(N2CCN(c3ccccc3F)CC2)ncn1 | 1120 s
63 | O=C(Nc1ccc2c(c1)N(C(=O)c1cccs1)CC2)c1c(F)cccc1Cl | 857 s
64 | Cc1nc(CC(=O)Nc2nc(-c3cccc(Cl)c3)c(C)s2)cs1 | 994 s
65 | CCN1CCn2cc(S(=O)(=O)NCc3ccccc3F)cc2C1=O | 685 s
66 | CC(C)c1cc(C(=O)Nc2cccc(C#N)c2)nc2ccnn12 | 1030 s
67 | CCn1cc(C(=O)NCc2ccccc2)c(S(=O)(=O)N2CCSCC2)n1 | 880 s
